Test results as given in ChEMBL document CHEMBL3112532, “Synthesis, [¹⁸F] radiolabeling, and evaluation of poly (ADP-ribose) polymerase-1 (PARP-1) inhibitors for in vivo imaging of PARP-1 using positron emission tomography” (Bioorg Med Chem, 2014).

Columns and labels:
Tumour [1] = test: Drug uptake in tumor of athymic nu/nu mouse xenografted with human MDA-MB-231 cells at 200 uCi measured at 60 mins by microPET image analysis in presence of olaparib; assay type: ADME, Neoplasm; details: in vivo, 1 h
Tumour [2] = test: Drug uptake in tumor of athymic nu/nu mouse xenografted with human MDA-MB-436 cells at 200 uCi measured at 60 mins by microPET image analysis in presence of 5,6-Dihydro-2-(4-(2-fluoroethoxy)phenyl)-imidazo[4,5,1-jk][1,4]benzodiazepin-7(4H)-one; assay type: ADME, Neoplasm; details: 1 h
Tumour [3] = test: Drug uptake in tumor of athymic nu/nu mouse xenografted with human MDA-MB-436 cells at 200 uCi measured at 60 mins by microPET image analysis; assay type: ADME, Neoplasm; details: 1 h
[4] = target: Poly [ADP-ribose] polymerase 1 (Homo sapiens, UniProt P09874); test: Inhibition of PARP-1 (unknown origin) assessed as NAD+ consumption after 20 mins by fluorometric analysis in presence of activated DNA
Poly [ADP-ribose] polymerase 1, sequence (P09874 whole entry): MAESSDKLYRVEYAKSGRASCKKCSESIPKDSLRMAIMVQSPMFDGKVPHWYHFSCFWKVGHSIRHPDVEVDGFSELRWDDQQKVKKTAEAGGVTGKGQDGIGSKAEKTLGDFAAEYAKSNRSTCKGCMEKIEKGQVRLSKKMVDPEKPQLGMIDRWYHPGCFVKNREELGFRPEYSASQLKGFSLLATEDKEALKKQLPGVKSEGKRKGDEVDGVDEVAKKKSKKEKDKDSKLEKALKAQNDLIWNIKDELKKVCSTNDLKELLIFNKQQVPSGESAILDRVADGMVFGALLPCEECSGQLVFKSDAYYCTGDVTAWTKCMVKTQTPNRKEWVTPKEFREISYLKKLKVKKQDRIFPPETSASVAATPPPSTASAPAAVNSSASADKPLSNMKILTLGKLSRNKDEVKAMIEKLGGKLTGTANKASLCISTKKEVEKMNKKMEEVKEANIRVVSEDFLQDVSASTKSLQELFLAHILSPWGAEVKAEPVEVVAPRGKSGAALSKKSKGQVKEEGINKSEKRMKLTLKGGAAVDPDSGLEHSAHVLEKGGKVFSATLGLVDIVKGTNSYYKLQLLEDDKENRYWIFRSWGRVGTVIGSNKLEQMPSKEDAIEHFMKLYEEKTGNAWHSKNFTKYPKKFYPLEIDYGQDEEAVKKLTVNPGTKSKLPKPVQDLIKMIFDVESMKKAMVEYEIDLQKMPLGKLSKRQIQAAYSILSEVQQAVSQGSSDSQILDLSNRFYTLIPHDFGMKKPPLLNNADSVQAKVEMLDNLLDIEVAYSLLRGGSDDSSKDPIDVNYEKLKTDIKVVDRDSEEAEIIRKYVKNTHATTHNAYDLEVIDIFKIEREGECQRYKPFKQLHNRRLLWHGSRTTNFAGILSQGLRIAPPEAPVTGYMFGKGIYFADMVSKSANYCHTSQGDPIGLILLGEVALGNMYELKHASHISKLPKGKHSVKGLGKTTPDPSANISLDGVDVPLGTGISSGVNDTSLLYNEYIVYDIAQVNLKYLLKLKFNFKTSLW

SMILES | Drug uptake (Tumour [1]) | Drug uptake (Tumour [2]) | Drug uptake (Tumour [3]) | IC50 [4] [nM]
O=C1NCCn2c(-c3ccc(OCC[18F])cc3)nc3cccc1c32 | Not Active | Not Active | Active | 
O=C1NCCn2c(-c3ccc(OCCF)cc3)nc3cccc1c32 |  |  |  | 6.3
